We go through one compound from patent publication US7875587B2, “Peptide analogues of GIP for treatment of diabetes, insulin resistance and obesity” (UUTECH Limited, priority 2004, dated 2011).

Structures are written as SMILES.

Data set [1] concerns the target T1, purified porcine dipeptidylpeptidase IV (Sus scrofa, UniProt P22411).
T1 construct: purchased Sigma (Poole, Dorset, UK)
Nature of the data set: DPP IV degradation studies of fatty acid derivatised GIP analogues. Format: in vitro ADME. The settings on record: incubation with DPP IV. The method, then:
(§1) DPP IV degradation studies. GIP and fatty acid derivatised GIP analogues were incubated at 37° C. with purified porcine dipeptidylpeptidase IV (5 mU in 50 mmol/l triethanolamine-HCl; pH 7.8) for 0, 2, 4, 8 and 24 hours (final peptide concentration 2 mmol/l). The reactions were subsequently terminated by addition of 10% (v/v) TFA/water and the reaction products separated using HPLC. […] HPLC peak area data were used to calculate % intact peptide remaining throughout the incubation.

The target of data set [2] is T2, DPP IV (Sus scrofa, UniProt P22411).
T2 construct: purchased Sigma (Poole, Dorset, UK)
Described as above. Format: in vitro ADME, porcine. The settings on record: pig, isolated enzyme dpp iv, pH 7.8, incubation with DPP IV, read-out: % Intact peptide remaining after time (hours). The method, then:
as §1

In data set [3] the test system is ob/ob mice. Nature of the data set: Acute metabolic and dose-response effects with glucose in 18 h fasted ob/ob mice. Format: in vivo, mouse. The method, then:
Animals. Obese diabetic (ob/ob) mice derived from the colony maintained at Aston University, UK were used at 12-17 weeks of age. The genetic background and characteristics of the colony used have been outlined in detail elsewhere (Bailey, C. J. et al., 1982, Int. J. Obesity 6:11-21; Gault, V. A. et al., 2003, J. Endocrinol. 176: 133-141). Animals were housed in an air-conditioned room at 22±2° C. with a 12 hours light: 12 hours dark cycle. Drinking water and standard rodent maintenance diet (Trouw Nutrition, Cheshire, UK) were freely available. All test solutions were administered by i.p. injection in a final volume of 5 ml/kg bw. Blood was collected from the cut tip of the tail vein of conscious mice into chilled fluoride/heparin microcentrifuge tubes immediately prior to injection and at the times indicated in the Figures. Plasma was separated using a Beckman microcentrifuge (Beckman Instruments, UK) at 13,000 g for 30 second and stored at −20° C. prior to glucose and insulin determinations. All animal experiments were carried out in accordance with the UK Animals (Scientific Procedures) Act 1986.
Metabolic and dose-response effects of GIP and N-AcGIP(LysPAL) analogues (at 6.25-25 nmoles/kg bw) following glucose administration (18 mmoles/kg bw) were examined in mice fasted for 18 hours. […] Food intake and body weight were recorded daily. Plasma glucose and insulin concentrations were monitored at 2-6 day intervals. At 14 days, groups of animals were used to evaluate intraperitoneal glucose tolerance (18 mmoles/kg) and insulin sensitivity (50 U/kg). In a separate series, two experimental protocols were employed to examine the possibility of GIP receptor desensitization after 14 days treatment. […] At the end of the 14-day treatment period, pancreatic tissues were excised for measurement of insulin following extraction with 5 ml/g ice-cold acid ethanol (75% ethanol, […], 1.5% HCl). Whole blood was taken for determination of glycated hemoglobin.
Biochemical analyses. Plasma glucose was assayed by an automated glucose oxidase procedure (Stevens, J. F., 1971, Clin. Chem. Acta 32:199-201) using a Beckman Glucose Analyser II (Beckman, Galway, Ireland). Plasma insulin was determined by dextran-charcoal RIA as described previously (Flatt, P. R. et al., 1981, Diabetologia 20: 573-577). Glycated hemoglobin was determined using cation-exchange columns (Sigma, Poole, Dorset, UK) with measurement of absorbance (415 nm) in wash and eluting buffers using a VersaMax microplate spectrophotometer (Molecular Devices, Wokingham, Berkshire, UK).
Statistics. Results are expressed as mean±SEM. Data were compared using the unpaired Student's t-test. Where appropriate, data were compared using repeated measures ANOVA or one-way ANOVA, followed by the Student-Newman-Keuls post hoc test. Incremental areas under plasma glucose and insulin curves (AUC) were calculated using a computer-generated program employing the trapezoidal rule (Burington, R. S., 1973, Handbook of Mathematical Tables and Formulae, McGraw-Hill, New York) with baseline subtraction.

Data set [4] relates to BRIN-BD11 cells. Nature of the data set: Insulin release from clonal pancreatic BRIN-BD11 cells (Example 6). The class given is cell-based. The settings on record: 5.6 mmol/l glucose, 20 minutes incubation. The protocol:
Cells and cell culture. Chinese hamster lung (CHL) fibroblasts stably transfected with the human GIP receptor (Gremlich, S. et al., 1995, Diabetes 44: 1202-1208) were cultured in DMEM tissue culture medium containing 10% (v/v) FBS, 1% (v/v) antibiotics (100 U/ml penicillin, 0.1 mg/ml streptomycin). Clonal pancreatic BRIN-BD11 cells (McClenaghan, N. H. et al., 1996, Diabetes 45: 1132-1140) were cultured using RPMI-1640 culture medium containing 10% (v/v) FBS, 1% (v/v) antibiotics (100 U/ml penicillin, 0.1 mg/ml streptomycin) and 11.1 mmol/l glucose. Cells were maintained at 37° C. in an atmosphere of 5% CO2 and 95% air using an LEEC incubator (Laboratory Technical Engineering, Nottingham, UK).
Insulin-release studies were carried out using clonal pancreatic BRIN-BD11 cells as described previously (O'Harte, F. P. M. et al., 2002, Diabetologia 45: 1281-1291). Briefly, BRIN-BD11 cells were seeded into 24-well plates at a density of 10^5 cells per well, and allowed to attach overnight at 37° C. Acute tests for insulin release were preceded by 40 minutes pre-incubation at 37° C. in 1.0 ml Krebs Ringer bicarbonate buffer supplemented with 1.1 mmol/l glucose. Test incubations were performed in the presence of 5.6 mmol/l glucose with a range of concentrations (10^−13 to 10^−6 mol/l) of GIP and GIP analogues. After 20 minutes incubation, the buffer was removed from each well and aliquots (200 μl) used for measurement of insulin.

Data set [5] concerns the target T3, human GIP receptor (Homo sapiens, UniProt P48546).
T3 construct: expressed in transfected cells; host or cells: Chinese hamster lung (CHL) fibroblasts, stably transfected
T3 sequence (P48546 22-466): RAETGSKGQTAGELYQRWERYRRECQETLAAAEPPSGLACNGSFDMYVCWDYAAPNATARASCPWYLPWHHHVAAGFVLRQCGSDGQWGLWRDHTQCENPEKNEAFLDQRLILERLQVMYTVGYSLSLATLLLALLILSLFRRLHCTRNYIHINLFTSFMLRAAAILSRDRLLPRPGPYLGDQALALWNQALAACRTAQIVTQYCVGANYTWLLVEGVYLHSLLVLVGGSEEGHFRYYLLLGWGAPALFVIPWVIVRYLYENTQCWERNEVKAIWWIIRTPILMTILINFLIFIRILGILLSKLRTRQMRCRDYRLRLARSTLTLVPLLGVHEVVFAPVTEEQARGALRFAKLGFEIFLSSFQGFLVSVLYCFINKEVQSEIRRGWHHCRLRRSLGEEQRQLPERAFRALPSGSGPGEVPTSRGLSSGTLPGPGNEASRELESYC
In words: Intracellular cyclic AMP production in GIP-receptor transfected CHL fibroblasts. Format: cell-based. The protocol: In vitro biological activity. […] In brief, CHL cells were seeded into 12-well plates (Nünc, Roskilde, Denmark) at a density of 10^5 cells per well and allowed to grow for 48 hours before being loaded with tritiated adenine (2 μCi; TRK311; Amersham, Buckinghamshire, UK). The cells were then incubated at 37° C. for 6 hours in 1 ml DMEM supplemented with 0.5% (w/v) BSA and subsequently washed twice with HBS buffer (pH 7.4). […] The medium was subsequently removed and the cells lysed with 1 ml of 5% TCA containing 0.1 mmol/l unlabelled cyclic AMP and 0.1 mmol/l unlabelled ATP.

T2 sequence (P22411 whole entry): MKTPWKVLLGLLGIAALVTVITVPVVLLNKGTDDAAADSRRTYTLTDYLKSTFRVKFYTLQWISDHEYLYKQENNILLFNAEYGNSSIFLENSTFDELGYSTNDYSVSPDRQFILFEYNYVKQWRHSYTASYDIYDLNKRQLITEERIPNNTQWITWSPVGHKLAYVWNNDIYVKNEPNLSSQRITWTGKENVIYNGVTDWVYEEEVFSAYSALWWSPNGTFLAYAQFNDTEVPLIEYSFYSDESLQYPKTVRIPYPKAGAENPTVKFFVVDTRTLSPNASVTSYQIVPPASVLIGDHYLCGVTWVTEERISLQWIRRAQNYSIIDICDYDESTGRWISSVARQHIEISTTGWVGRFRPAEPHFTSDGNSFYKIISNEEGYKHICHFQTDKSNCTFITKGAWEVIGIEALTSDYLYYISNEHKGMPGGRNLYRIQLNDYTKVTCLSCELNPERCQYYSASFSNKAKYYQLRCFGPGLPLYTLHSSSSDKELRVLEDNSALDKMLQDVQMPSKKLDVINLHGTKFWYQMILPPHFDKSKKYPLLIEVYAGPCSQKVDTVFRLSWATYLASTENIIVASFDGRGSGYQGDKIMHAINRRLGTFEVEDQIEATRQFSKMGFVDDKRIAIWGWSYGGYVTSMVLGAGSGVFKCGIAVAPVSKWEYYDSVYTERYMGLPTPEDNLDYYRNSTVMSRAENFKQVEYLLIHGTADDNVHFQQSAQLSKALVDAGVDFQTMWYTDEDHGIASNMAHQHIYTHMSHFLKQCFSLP
T1 sequence (P22411 whole entry): as above

Take `CCCCCCCCCCCCCCCC(=O)NCCCC[C@H](NC(=O)[C@H](CC(=O)O)NC(=O)[C@H](CCSC)NC(=O)[C@H](C)NC(=O)[C@@H](NC(=O)[C@H](CO)NC(=O)[C@H](Cc1ccc(O)cc1)NC(=O)[C@H](CC(=O)O)NC(=O)[C@H](CO)NC(=O)[C@@H](NC(=O)[C@H](Cc1ccccc1)NC(=O)[C@@H](NC(=O)CNC(=O)[C@H](CCC(=O)O)NC(=O)[C@H](C)NC(=O)[C@H](Cc1ccc(O)cc1)NC(C)=O)[C@@H](C)O)[C@@H](C)CC)[C@@H](C)CC)C(=O)N[C@H](C(=O)N[C@@H](Cc1c[nH]cn1)C(=O)N[C@@H](CCC(N)=O)C(=O)N[C@@H](CCC(N)=O)C(=O)N[C@@H](CC(=O)O)C(=O)N[C@@H](Cc1ccccc1)C(=O)N[C@H](C(=O)N[C@@H](CC(N)=O)C(=O)N[C@@H](Cc1c[nH]c2ccccc12)C(=O)N[C@@H](CC(C)C)C(=O)N[C@@H](CC(C)C)C(=O)N[C@@H](C)C(=O)N[C@@H](CCC(N)=O)C(=O)N[C@@H](CCCCN)C(=O)NCC(=O)N[C@@H](CCCCN)C(=O)N[C@@H](CCCCN)C(=O)N[C@@H](CC(N)=O)C(=O)N[C@@H](CC(=O)O)C(=O)N[C@@H](Cc1c[nH]c2ccccc12)C(=O)N[C@@H](CCCCN)C(=O)N[C@@H](Cc1c[nH]cn1)C(=O)N[C@@H](CC(N)=O)C(=O)N[C@H](C(=O)N[C@H](C(=O)N[C@@H](CCC(N)=O)C(=O)O)[C@@H](C)O)[C@@H](C)CC)C(C)C)[C@@H](C)CC` [N-AcGIP(LysPAL^16)]: the “% Intact peptide remaining after time (hours)” value in data set [1] (0 h) is given as 100%. For the same compound, in data set [1] (24 h), the “% Intact peptide remaining after time (hours)” value is “remained completely intact”. The fraction remaining at 2 h, 2 mmol/l in data set [2] (2 h) was determined as 100%. Moreover, the fraction remaining at 8 h, 2 mmol/l in data set [2] (8 h) worked out at 100%. In addition, the fraction remaining at 24 h, 2 mmol/l in data set [2] (24 h) was determined as 100%. For the same compound, in data set [3] (25 nmoles/kg i.p. with glucose), the “enhancement of overall glucose-mediated insulin release (AUC) compared to native GIP” value amounted to 1.5 fold and the “overall glucose excursion compared to native GIP” value is reported as “decreased the overall glucose excursion”. The “overall glucose excursion (glucose AUC) compared to glucose alone” value in data set [3] (25 nmoles/kg i.p. with glucose 18 mmoles/kg, 0-60 min) was “significantly lowered glucose AUC”. In addition, the “insulin secretion compared to control” value in data set [4] was “significantly stimulated glucose-induced insulin secretion”. In data set [5], this compound gave an EC50 of 12.1 nM.
